Molecules are shown by their SMILES. Where two headings read alike, the source gives them in different places.

The assay concerns the target T1, SSAO/VAP-1 (Rattus norvegicus, UniProt O08590).
T1 construct: from tissue; host or cells: rat plasma, brain, retina, small intestine, lung, liver, kidney
T1 sequence (O08590 1-763): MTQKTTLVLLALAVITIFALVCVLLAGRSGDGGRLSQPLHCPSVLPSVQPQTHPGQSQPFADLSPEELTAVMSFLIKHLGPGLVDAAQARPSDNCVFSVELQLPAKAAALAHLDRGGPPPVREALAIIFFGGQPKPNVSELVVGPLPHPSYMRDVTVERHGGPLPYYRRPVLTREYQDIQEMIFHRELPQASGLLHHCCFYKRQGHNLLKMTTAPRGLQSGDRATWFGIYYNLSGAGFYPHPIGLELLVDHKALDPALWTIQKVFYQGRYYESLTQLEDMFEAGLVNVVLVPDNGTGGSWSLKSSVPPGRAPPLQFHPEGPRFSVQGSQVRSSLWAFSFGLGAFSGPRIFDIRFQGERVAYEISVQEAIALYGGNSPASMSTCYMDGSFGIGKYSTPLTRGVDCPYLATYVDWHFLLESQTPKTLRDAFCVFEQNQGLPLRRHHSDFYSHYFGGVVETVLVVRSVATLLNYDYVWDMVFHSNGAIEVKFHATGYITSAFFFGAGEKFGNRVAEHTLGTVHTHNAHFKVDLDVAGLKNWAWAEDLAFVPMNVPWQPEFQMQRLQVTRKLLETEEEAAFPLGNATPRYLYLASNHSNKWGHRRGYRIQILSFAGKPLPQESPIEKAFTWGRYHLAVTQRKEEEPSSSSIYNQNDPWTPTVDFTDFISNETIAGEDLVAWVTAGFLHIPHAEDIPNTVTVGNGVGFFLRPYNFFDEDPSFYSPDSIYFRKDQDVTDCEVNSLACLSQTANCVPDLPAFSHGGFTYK
Nature of the assay: Inhibitory activity on SSAO/VAP-1 in animal tissues after oral administration. In kind it is in vivo. The note with it: 24 hours post single administration, mean ± SEM. How it is done: MAO-Glo Assay kit (Promega, V1402) was used to determine the activity of SSAO in animal tissues. After test compounds were adminstered to the animal, SSAO enzyme activity was calculated by measuring the activity of the monoamine oxidases in the animal tissue homogenate that was insensitive to MAO inhibitors Clogyline and Pargyline. The compounds were orally administered to rats at different doses, and same volume of vehicle was orally administered to control animals. Animal plasma, brain, retina, small intestine, lung, liver, and kidney were respectively collected 24 hours after administration (the animals were perfused with PBS before the collection of small intestine, lung, liver, and kidney) and stored in a −80° C. refrigerator until analysis. Each tissue was homogenized in tissue homogenate lysis buffer (20 mM HEPES, pH 7.4, 150 mM NaCl, 1 mM EDTA, 1 mM EGTA, 1% Triton X-100 and 1× Roche Complete protease inhibitor tablet). The homogenate was centrifuged at 12000 rpm at 4° C. for 30 minutes to remove tissue fragments. 5 μL of supernatant and 2 μL of mixture of Clogyline (10 μM) and Pargyline (10 μM) were incubated for 10 minutes at room temperature. Then 2 μL of substrate from MAO-Glo assay kit was added to the mixture, and reacted at room temperature for 60 minutes. Detection reagents were added to quench the reaction according to instructions. The fluorescein data was read by Biotek Neo2. The activity of monoamine oxidase in tissues that is not sensitive to MAO inhibitors was used to represent the activity of SSAO. Percentage of SSAO activity in administered animals was compared with that of control animals to calculate the compound inhibition rate.

Where [1] appears, read: brain, read-out: remaining SSAO activity percentage (SSAO activity %), Brain.
[2] abbreviates: plasma, read-out: remaining SSAO activity percentage (SSAO activity %), Plasma.
Where [3] appears, read: retina, read-out: remaining SSAO activity percentage (SSAO activity %), Retina.

What is called remaining activity is the share of the control activity or signal that is left under treatment. `COC1CC2CC1CN2c1ncc(OC/C(=C/F)CN)cn1` (stereo not drawn) [Example 2]: the remaining activity at 0.6 mg/kg stood at 49.1 ± 21.2% under setting [1], 24.3 ± 5.2% under setting [2] and 28.7 ± 8.5% under setting [3].

Regarding `CC1(C)CN(c2ncc(OC/C(=C/F)CN)cn2)CCN1C1COC1` [Example 10], the remaining activity at 0.6 mg/kg by setting is: under setting [1], 27.3 ± 1.8%; under setting [2], 5.8 ± 2.1%; under setting [3], 8 ± 0.8%.

Regarding `NC/C(=C\F)COc1cnc(N2CCC3(CC2)COC3)nc1` [Example 3], the remaining activity at 1 mg/kg is, setting by setting: under setting [1], 55.6 ± 10.5%; under setting [2], 15.2 ± 2.6%; under setting [3], 8.9 ± 3.2%.

Turning to `COC1CC2CCC(C1)N2c1ncc(OC/C(=C/F)CN)cn1` (stereo not drawn) [Example 12], the remaining activity at 1 mg/kg under setting [1] amounted to 63.1 ± 12.1%, the remaining activity at 1 mg/kg under setting [2] stood at 25.6 ± 3% and the remaining activity at 1 mg/kg under setting [3] is 24.6 ± 3.5%.

Values taken from patent US12258336B2, “Preparation of seimicarbazide-sensitive amine oxidase inhibitor and use thereof” (SHANGHAI ENNOVABIO PHARMACEUTICALS CO., LTD., priority 2018, dated 2025).
